Consider eight molecules from PMC8330742, “New benzothieno[2,3-c]pyridines as non-steroidal CYP17 inhibitors: design, synthesis, anticancer screening, apoptosis induction, and in silico ADME profile studies” (Journal of Enzyme Inhibition and Medicinal Chemistry, 2021).

One series deals with CYP17. The note with it: Figure 1, known CYP17 inhibitors; cited from earlier work.
The next series deals with OVCAR-4. Nature of the series: NCI-60 SRB screen. The series is classed as cell-based, human. The note with it: OVCAR-4; single dose 10^−5 M.
The subject of the next series is MOLT-4. Nature of the series: NCI-60 SRB screen. The series is classed as cell-based. Particulars: MOLT-4; single dose 10^−5 M.
Another series has as its system SK-MEL-28. Kind of series: NCI-60 SRB screen. Particulars: SK-MEL-28; single dose 10^−5 M. Type of series: cell-based.
For the next series, the system named is IGROV1. Kind of series: NCI-60 SRB screen. The series is classed as cell-based, human. The note with it: IGROV1; single dose 10^−5 M.
For a further series, the system named is SN12C. Nature of the series: NCI-60 SRB screen. Type of series: cell-based, human. The note with it: SN 12 C; single dose 10^−5 M.
Series [1] relates to panel of 60 cancer cell lines. Nature of the series: NCI-60 SRB screen, mean or range over the panel. Particulars: mean over the cell lines; single dose 10^−5 M. The series is classed as cell-based, human.
In the next series the test system is UACC-62. Kind of series: NCI-60 SRB screen. The series is classed as cell-based, human. Particulars: UACC-62; single dose 10^−5 M.
Another series concerns RXF 393. Nature of the series: NCI-60 SRB screen. Particulars: RXF 393; single dose 10^−5 M. The series is classed as cell-based, human.
A further series concerns A498. Kind of series: NCI-60 SRB screen. The series is classed as cell-based, human. Particulars: A498; single dose 10^−5 M.
The next series deals with HL-60(TB). Nature of the series: NCI-60 SRB screen. Type of series: cell-based, human. Particulars: HL-60 (TB); single dose 10^−5 M.
A further series concerns CCRF-CEM. Nature of the series: NCI-60 SRB screen. Particulars: single dose 10^−5 M. Type of series: cell-based.
The subject of the next series is U251. Nature of the series: NCI-60 SRB screen. Type of series: cell-based, human. Particulars: U251; single dose 10^−5 M.
The test system of a further series is NCI/ADR-RES. Nature of the series: NCI-60 SRB screen. The series is classed as cell-based, human. The note with it: single dose 10^−5 M.
The subject of the next series is KM12. Kind of series: NCI-60 SRB screen. Type of series: cell-based, human. The note with it: KM12; single dose 10^−5 M.
The test system of the next series is LOX IMVI. Nature of the series: NCI-60 SRB screen. Type of series: cell-based, human. Particulars: single dose 10^−5 M.
The subject of the next series is CAKI-1. Kind of series: NCI-60 SRB screen. Particulars: CAKI-1; single dose 10^−5 M. The series is classed as cell-based, human.
For the next series, the system named is NCI-H460. Kind of series: NCI-60 SRB screen. Type of series: cell-based, human. Particulars: NCI-H460; single dose 10^−5 M.
In the next series the test system is UACC-257. Kind of series: NCI-60 SRB screen. The series is classed as cell-based, human. The note with it: UACC-275 (so in the source); single dose 10^−5 M.
For a further series, the system named is SF-539. Kind of series: NCI-60 SRB screen. The series is classed as cell-based, human. Particulars: SF-539; single dose 10^−5 M.
The next series deals with SW-620. Nature of the series: NCI-60 SRB screen. The series is classed as cell-based. Particulars: SW-620; single dose 10^−5 M.
A further series deals with OVCAR-5. Kind of series: NCI-60 SRB screen. The series is classed as cell-based, human. The note with it: OVCAR-5; single dose 10^−5 M.
The next series deals with HCT-116. Nature of the series: NCI-60 SRB screen. Type of series: cell-based, human. Particulars: HCT-116; single dose 10^−5 M.
The subject of the next series is SK-OV-3. Nature of the series: NCI-60 SRB screen. Type of series: cell-based, human. Particulars: SK-OV-3; single dose 10^−5 M.
Another series concerns UO-31. Kind of series: NCI-60 SRB screen. Type of series: cell-based, human. Particulars: UO-31; single dose 10^−5 M.
Another series has as its system K-562. Nature of the series: NCI-60 SRB screen. Particulars: K-562; single dose 10^−5 M. The series is classed as cell-based, human.
Another series relates to MALME-3M. Kind of series: NCI-60 SRB screen. Type of series: cell-based, human. The note with it: single dose 10^−5 M.
For the next series, the system named is NCI-H322M. Kind of series: NCI-60 SRB screen. The note with it: single dose 10^−5 M. The series is classed as cell-based, human.
A further series relates to OVCAR-8. Nature of the series: NCI-60 SRB screen. Type of series: cell-based, human. Particulars: OVCAR-8; single dose 10^−5 M.
The next series deals with HCT-15. Nature of the series: NCI-60 SRB screen. The series is classed as cell-based, human. Particulars: HCT-15; single dose 10^−5 M.
The test system of another series is ACHN. Nature of the series: NCI-60 SRB screen. The series is classed as cell-based. The note with it: single dose 10^−5 M.
The next series concerns TK-10. Kind of series: NCI-60 SRB screen. The note with it: TK-10; single dose 10^−5 M. Type of series: cell-based, human.
For the next series, the system named is HOP-62. Kind of series: NCI-60 SRB screen. The note with it: HOP-62; single dose 10^−5 M. The series is classed as cell-based, human.
The next series has as its system SNB-75. Kind of series: NCI-60 SRB screen. Type of series: cell-based, human. The note with it: SNB-75; single dose 10^−5 M.
The subject of another series is RPMI-8226. Kind of series: NCI-60 SRB screen. The series is classed as cell-based. Particulars: RPMI-8226; single dose 10^−5 M.
For the next series, the system named is NCI-H226. Nature of the series: NCI-60 SRB screen. The series is classed as cell-based, human. Particulars: NCI-H226; single dose 10^−5 M.
Another series has as its system OVCAR-3. Kind of series: NCI-60 SRB screen. Type of series: cell-based, human. Particulars: OVCAR-3; single dose 10^−5 M.
The subject of the next series is A549/ATCC. Kind of series: NCI-60 SRB screen. The note with it: single dose 10^−5 M. Type of series: cell-based, human.
In another series the test system is NCI-H522. Kind of series: NCI-60 SRB screen. The series is classed as cell-based, human. Particulars: NCI-H522; single dose 10^−5 M.
In another series the test system is HCC-2998. Nature of the series: NCI-60 SRB screen. The series is classed as cell-based, human. Particulars: HCC-2998; single dose 10^−5 M.
A further series has as its system COLO 205. Kind of series: NCI-60 SRB screen. The note with it: COLO 205; single dose 10^−5 M. Type of series: cell-based, human.
For a further series, the system named is EKVX. Nature of the series: NCI-60 SRB screen. The series is classed as cell-based, human. The note with it: single dose 10^−5 M.
For the next series, the system named is SF-268. Kind of series: NCI-60 SRB screen. Type of series: cell-based, human. The note with it: SF-268; single dose 10^−5 M.
The next series has as its system M14. Kind of series: NCI-60 SRB screen. The series is classed as cell-based, human. The note with it: M14; single dose 10^−5 M.
A further series relates to HT-29. Nature of the series: NCI-60 SRB screen. The note with it: HT-29; single dose 10^−5 M. Type of series: cell-based.
A further series has as its system HOP-92. Kind of series: NCI-60 SRB screen. Type of series: cell-based, human. The note with it: HOP-92; single dose 10^−5 M.
The test system of another series is MDA-MB-435. Kind of series: NCI-60 SRB screen. The note with it: MDA-MB435; single dose 10^−5 M. Type of series: cell-based.
Another series has as its system 786-0. Nature of the series: NCI-60 SRB screen. Type of series: cell-based. The note with it: 786-0; single dose 10^−5 M.
Another series concerns SK-MEL-5. Kind of series: NCI-60 SRB screen. The series is classed as cell-based, human. Particulars: SK-MEL-5; single dose 10^−5 M.
The next series has as its system SR. Kind of series: NCI-60 SRB screen. Type of series: cell-based. The note with it: single dose 10^−5 M.
The next series has as its system SNB-19. Kind of series: NCI-60 SRB screen. The series is classed as cell-based. The note with it: SNB-19; single dose 10^−5 M.
The test system of a further series is SF-295. Nature of the series: NCI-60 SRB screen. Particulars: SF-295; single dose 10^−5 M. Type of series: cell-based, human.
The subject of the next series is SK-MEL-2. Nature of the series: NCI-60 SRB screen. Type of series: cell-based, human. The note with it: SK-MEL-2; single dose 10^−5 M.
For another series, the system named is NCI-H23. Kind of series: NCI-60 SRB screen. Type of series: cell-based, human. The note with it: NCI-H23; single dose 10^−5 M.

For `CNC(=O)c1ccc(N2C(=S)N(c3cnc(C#N)c(C(F)(F)F)c3)C(=O)C23CCC3)cc1F` [Apalutamide, apalutamide], in the series on CYP17, the IC50 is 15 nM.

Regarding `Cc1ccncc1N1CCN(c2ccnc(Cl)c2)C1=O` [CFG920], the IC50 in the series on CYP17 is 23 nM.

Consider `O=C1C(=Cc2cccc([N+](=O)[O-])c2)Sc2c(F)cccc21` [Compound 2d, 7-Fluoro-2-(3-nitrobenzylidene)[1]benzothiophen-3(2H)-one], for which the melting point fell in the range of 200 to 202 °C.

Consider `O=C1Cc2c(sc3c(F)cccc23)C(c2cccc([N+](=O)[O-])c2)N1` (stereo not drawn) [Compound 3d], for which the “Growth inhibition (%)” value was −1.20% with OVCAR-4; 2.90% in the series with MOLT-4; −9.19% with SK-MEL-28; 20.45% in the series with IGROV1; 4.04% with SN12C; 14.07% in the series with UACC-62. Moreover, the “Growth inhibition (%)” value in the series on RXF 393 is given as −5.23%; in the series with A498, 4.88%; in the series with HL-60(TB), 12.00%; in the series on CCRF-CEM, 0.90%; with U251, 20.57%; in the series with NCI/ADR-RES, 4.50%. In addition, the “Growth inhibition (%)” value was 3.93% in the series with KM12; 12.77% in the series on LOX IMVI; 21.82% in the series on CAKI-1; 0.53% in the series with NCI-H460; −7.53% in the series with UACC-257; 6.60% in the series on SF-539. For the same molecule, the “Growth inhibition (%)” value in the series on SW-620 is given as 2.40%; in the series on OVCAR-5 it was −8.70%; in the series with HCT-116, 23.07%; in the series with SK-OV-3, −3.95%; in the series with UO-31, 34.84%; in the series with K-562, 15.78%. The “Growth inhibition (%)” value in the series with MALME-3M is −6.36%; with NCI-H322M it was 2.78%; in the series with OVCAR-8, 2.86%; with HCT-15, 21.33%; in the series with ACHN, 6.70%; with TK-10, −52.28%. The “Growth inhibition (%)” value in the series on HOP-62 is listed as 14.32%; with SNB-75, 21.53%; in the series on RPMI-8226, 29.04%; in the series with NCI-H226, 21.32%; in the series on OVCAR-3 it was 0.09%; in the series with A549/ATCC, −5.27%. Further, the “Growth inhibition (%)” value in the series on NCI-H522 is recorded as 17.55%; in the series with HCC-2998, −6.11%; in the series on COLO 205, −7.27%; in the series on EKVX, 7.98%; in the series with SF-268, 14.60%; in the series with M14, 1.35%. Also, the “Growth inhibition (%)” value is on record as 0.03% with HT-29; 10.96% in the series with HOP-92; −3.38% in the series on MDA-MB-435; −10.00% with 786-0; 5.55% in the series with SK-MEL-5; 23.81% with SR. In addition, the “Growth inhibition (%)” value with SNB-19 was 6.23%; with SF-295, 2.30%; in the series on SK-MEL-2, −1.12%; in the series on NCI-H23, 1.04%. Moreover, the “Mean growth inhibition (%)” value in [1] worked out at 6.24%.

Regarding `C[C@]12CC[C@H](O)CC1=CC[C@@H]1[C@@H]2CC[C@]2(C)C(n3cnc4ccccc43)=CC[C@@H]12` [Galeterone], the IC50 in the series with CYP17 was 300 nM.

For the molecule `Oc1ccc2sc3c(c2c1)CCN(Cc1cccnc1)C3` [VIc], the IC50 with CYP17 was 20.9 nM.

In the case of `N#Cc1ccc2sc3c(c2c1)CCN(Cc1cccnc1)C3` [VId], the IC50 with CYP17 is 257 nM.

Regarding `c1ccc2c(c1)[nH]c1cc(Cc3cnc[nH]3)ccc12` [YM-116], the IC50 in the series with CYP17 was 228 nM.

What is called IC50 is the point on the concentration scale where inhibition reaches its midpoint. A word on the melting point: it is the temperature, or range, at which the solid turns liquid.
